# In US20250235498A1, “METHODS OF TREATING OR PREVENTING RESPIRATORY DISEASE WITH HOUTTUYNIA CORDATA THUNB-BASED AEROSOL INHALATION THERAPY” (National Sun Yat-sen University, priority 2024, published 2025):
# Tested on: cytokine and chemokine in bronchoalveolar lavage fluid (BALF)
# Assay: Ovalbumin (OVA)-sensitized phenol-induced COPD animal model, cytokine and chemokine detection in BALF
# Assay type: in vivo, Female BALB/c ByJNarl mice
# Settings: OVA-sensitized mice exposed to phenol aqueous aerosols for 3 weeks, aerosol inhalation; FIG. 3
# Description: Four types of aerosol drugs with varying formulation are separately named as drug A, drug B, drug C and NAC. Drug A, drug B and drug C are mainly composed by Houttuynia Cordata Thunb aqueous extract. Drug A (HCA-A) is pure Houttuynia Cordata Thunb aqueous extract. Drug B (HCA-B) is comprised of Houttuynia Cordata Thunb aqueous extract and 500 μM GSH, while Drug C (HCA-C) is comprised of Houttuynia Cordata Thunb aqueous extract, 500 µM GSH and 500 μM BP. NAC is a mucolytic and antioxidant drug already prevalently used in clinic that are known to modulate several pathways of inflammation. NAC is used here as the positive control to compare the efficacy of aerosol formulation of Houttuynia Cordata Thunb in this study.
# The OVA-sensitized mice were firstly placed in a custom-built 40 cm×40 cm×30 cm whole-body acrylic exposure chamber, which was filled and continuously replenished with phenol aqueous aerosols (PAA) for 30 minutes, twice per day for three consecutive weeks. PAA were prepared by atomizing 0.25M aqueous phenol solution via a high flow, liquid-feed atomizer (Model 9306, TSI).
# Female BALB/c ByJNarl mice (age: 6-8 weeks, weight: 20-25 g) were purchased from National Laboratory Animal Center (NLAC, NARLabs, Taiwan) and approved by the Institutional Animal Care and Use Committee (IACUC) for the experiment of phenol aerosol exposure and inhalation therapy on OVA-treated mice. […]
structure (smiles),measurement,value
"CC(=O)N[C@@H](CS)C(=O)O [NAC, N-Acetylcysteine]",Interleukin 1α (IL-1α) level in BALF,did not show apparent reduction
